Assay results taken from US6737383B1, “Herbicidal oxadiazolidines” (priority 1999, dated 2004).

Legend:
[1] = test system: rice; assay: Test B flood test rice; format: in vivo, Oryza sativa
Procedure: (§1) At the same time, these crop and weed species were also treated with postemergence applications of test chemicals formulated in the same manner. Plants ranged in height from 2 to 18 cm (1- to 4-leaf stage) for postemergence treatments. Plant species in the flood test consisted of rice (Oryza sativa), smallflower flatsedge (Cyperus difformis), duck salad (Heteranthera limosa) and bamyardgrass (Echinochloa crus-galli) grown to the 2-leaf stage for testing. Treated plants and controls were maintained in a greenhouse for twelve to sixteen days, after which all species were compared to controls and visually evaluated. Plant response ratings, summarized in Table B, are based on a scale of 0 to 10 where 0 is no effect and 10 is complete control. A dash (−) response means no test result.

[2] = test system: duck salad; assay: Test B flood test duck salad; format: in vivo, Heteranthera limosa
In short: (§2)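 Plants were grown to the 2-leaf stage before treatment with test chemical, then held in a greenhouse for twelve to sixteen days. Injury was visually rated against untreated controls on a 0–10 scale, where 0 is no effect and 10 is complete control.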

[3] = test system: smallflower flatsedge; assay: Test B flood test smallflower flatsedge; format: in vivo, Cyperus difformis
In short: as §2

[4] = test system: bamyardgrass; assay: Test B flood test barnyardgrass; format: in vivo, Echinochloa crus-galli
Procedure: as §1

[5] = Rate 62 g/ha, flood test species, Pre-emergence, visual evaluation after twelve to sixteen days
[6] = Rate 125 g/ha, under heading Pre-emergence, flood test species, visual evaluation after twelve to sixteen days
[7] = Rate 250 g/ha, Pre-emergence (flood test species), scale 0 to 10, 0 is no effect, 10 is complete control
[8] = Rate 500 g/ha, Pre-emergence section of Table B, 0 to 10 scale (0 no effect, 10 complete control)

C=C(C(=O)OC)C(C)n1c(=O)on(C(=O)N(c2ccccc2)C(C)C)c1=O (stereo not shown) [Compound 651]
0: Plant response rating, Rice (0 to 10 scale, 0 is no effect, 10 is complete control) [1, 5] | Rice plant response rating (0 to 10 scale, 0 is no effect, 10 is complete control) [1, 6] | Rice plant response rating [1, 7] | Rice plant response rating [1, 8] | Plant response rating, Ducksalad (0 to 10 scale, 0 is no effect, 10 is complete control) [2, 5] | Ducksalad plant response rating (0 to 10 scale, 0 is no effect, 10 is complete control) [2, 6] | Ducksalad plant response rating [2, 7] | Ducksalad plant response rating [2, 8] | Plant response rating, S. Flatsedge (0 to 10 scale, 0 is no effect, 10 is complete control) [3, 5] | S. Flatsedge plant response rating (0 to 10 scale, 0 is no effect, 10 is complete control) [3, 6] | S. Flatsedge plant response rating [3, 7] | S. Flatsedge plant response rating [3, 8] | Plant response rating, Barnyardgrass (0 to 10 scale, 0 is no effect, 10 is complete control) [4, 5] | Barnyardgrass plant response rating (0 to 10 scale, 0 is no effect, 10 is complete control) [4, 6] | Barnyardgrass plant response rating [4, 7] | Barnyardgrass plant response rating [4, 8]
